According to patent US20120010179A1, “Methods of using a thiazole derivative” (priority 2006, published 2012):

Key:
[1] = tested on: patients with COPD; test: Pharmacodynamic and safety assessments (ECG, vital signs, serum potassium, adverse events, laboratory), Example 1; type: in vivo, human
Experimental: Twelve-lead electrocardiograms (ECGs) were conducted after the subject had been resting and supine for ≧3 minutes. In addition to screening and pre-treatment baseline (Day 0) measurements, ECGs were also recorded at specific times during the treatment period. All 12-lead ECG monitors used for this study were calibrated and standardized. The ventricular rate, PR interval (the time elapsing between the beginning of the P wave and the beginning of the QRS interval in an electrocardiogram, corresponding to the electrical activity through the atria), QRS interval (the movement of electrical impulses through the ventricles), QT/QTc interval (the QT interval measures the time between the start of the Q wave and the end of the T wave in the heart's electrical cycle; QTc is a corrected QT interval, as determined by Fridericia's formula [QTcF] and Bazett's formula [QTcB]), and the overall ECG interpretation (normal or abnormal) were documented. Measurements were recorded prior to collection of any blood samples, where applicable. At least three original copies of each ECG (one each for the site, for the sponsor, and for the central ECG provider) were made. […]
Vital signs (heart rate and systolic blood pressure) were measured after the subject had been sitting for ≧3 minutes. […] Measurements were recorded prior to the collection of any blood samples, where applicable. […]

[2] = tested on: guinea pig models of pulmonary disease; conditions: cited from earlier work

In the case of `CCOc1ccc(-c2nc(-c3cccc(C(=O)O)n3)cs2)cc1OCC` [Tetomilast, 2-(3,4-diethoxyphenyl)-4-(2-carboxy-6-pyridyl)thiazole], the “differences in adverse events, serum chemistry, hematology, or urinalysis versus placebo” value ([1]; oral tetomilast with inhaled albuterol) is listed as “no clinically meaningful differences”, the “changes in heart rate, systolic blood pressure, serum potassium, or QT interval versus placebo” value ([1]; oral tetomilast with relatively high doses of inhaled albuterol) is listed as “No clinically meaningful changes” and the “airway resistance and peak expiration flow” value [2] is listed as “improve”.
